{"source": "patent US9273057B2", "about": "(Bristol-Myers Squibb Company, priority 2012, dated 2016)", "note": "pIC50: −log10 of the molar value."}
{"molecular_target": "CK2A1 (CK2α/β) (Homo sapiens, UniProt P68400)", "sequence (P68400 whole entry, species assumed)": "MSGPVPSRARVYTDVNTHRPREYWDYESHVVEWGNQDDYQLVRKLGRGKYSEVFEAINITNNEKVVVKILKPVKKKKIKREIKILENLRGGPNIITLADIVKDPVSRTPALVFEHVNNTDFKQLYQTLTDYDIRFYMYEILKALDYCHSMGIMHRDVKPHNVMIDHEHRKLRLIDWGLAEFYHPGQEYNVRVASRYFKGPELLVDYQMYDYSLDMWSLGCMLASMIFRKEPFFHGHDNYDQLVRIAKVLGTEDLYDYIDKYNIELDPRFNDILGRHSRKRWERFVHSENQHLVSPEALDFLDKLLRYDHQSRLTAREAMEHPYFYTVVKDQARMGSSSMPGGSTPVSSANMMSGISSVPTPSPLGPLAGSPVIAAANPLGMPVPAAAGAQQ", "sequence (P67870 whole entry partner, species assumed)": "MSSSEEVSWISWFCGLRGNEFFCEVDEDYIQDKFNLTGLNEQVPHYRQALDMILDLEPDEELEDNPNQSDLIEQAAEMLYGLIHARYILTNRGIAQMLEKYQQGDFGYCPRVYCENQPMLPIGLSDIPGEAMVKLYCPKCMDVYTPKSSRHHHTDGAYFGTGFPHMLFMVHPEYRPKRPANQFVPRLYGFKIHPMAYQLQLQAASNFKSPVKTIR", "assay": "CK2 kinase assay, CK2A1 (CK2α/β)", "format": "biochemical", "conditions": "Table A; read-out: CK2A1 (CK2α/β) (IC50)"}
{"smiles": "CN1CCN(CC(O)c2cc(C#N)cc(Nc3nc(NC4CC4)c4ncc(C#N)n4n3)c2Cl)CC1", "note": "(centres unmarked) [Example 686, 2-((2-chloro-5-cyano-3-(1-hydroxy-2-(4-methylpiperazin-1-yl)ethyl)phenyl)amino)-4-(cyclopropylamino)imidazo[2,1-f][1,2,4]triazine-7-carbonitrile]", "pIC50": 8.89}
{"smiles": "CCNc1nc(Nc2cc(C#N)cc(N3CC[C@@H](NC(=O)OC)[C@H](N(C)CC(C)(C)O)C3)c2Cl)nn2c(C#N)cnc12", "note": "[Example 770, methyl N-[(3R,4R)-1-(2-chloro-5-cyano-3-{[7-cyano-4-(ethylamino)imidazo[2,1-f][1,2,4]triazin-2-yl]amino}phenyl)-3-[(2-hydroxy-2-methylpropyl)(methyl)amino]piperidin-4-yl] carbamate]", "pIC50": 8.05}
{"smiles": "N#Cc1cc(Nc2nc(NC3CC3)c3ncc(C#N)n3n2)c(Cl)c(C2CCN(C3CCC3O)CC2)c1", "note": "(single isomer, unassigned) [Example 646, Cis and trans 2-((2-chloro-5-cyano-3-(1-(2-hydroxycyclobutyl)piperidin-4-yl)phenyl)amino)-4-(cyclopropylamino)imidazo[2,1-f][1,2,4]triazine-7-carbonitrile]", "pIC50": 8.83}
{"smiles": "CO[C@@H]1CN(c2cc(C#N)cc(Nc3nc(NC4CC4)c4ncc(C#N)n4n3)c2Cl)C[C@@H]1N", "note": "[Example 30, 2-((3-((3S,4R)-3-amino-4-methoxy-1-pyrrolidinyl)-2-chloro-5-cyanophenyl)amino)-4-(cyclopropylamino)imidazo [2,1-f][1,2,4]triazine-7-carbonitrile]", "pIC50": 9.04}
{"smiles": "CCNc1nc(Nc2cc(C#N)cc(C3CCN(C4CN(C(C)=O)C4)CC3)c2Cl)nn2c(C#N)cnc12", "note": "[Example 356, 2-((3-(1-(1-acetyl-3-azetidinyl)-4-piperidinyl)-2-chloro-5-cyanophenyl)amino)-4-(ethylamino)imidazo [2,1-f][1,2,4]triazine-7-carbonitrile]", "pIC50": 9.14}
{"smiles": "CN1CCC2(CCN(c3cc(C#N)cc(Nc4nc(NC5CC5)c5ncc(C#N)n5n4)c3Cl)CC2)C1=O", "note": "(racemic) [Example 779, (+/−)-2-((2-chloro-5-cyano-3-(2-methyl-1-oxo-2,8-diazaspiro[4.5]decan-8-yl)phenyl)amino)-4-(cyclopropylamino)imidazo[2,1-f][1,2,4]triazine-7-carbonitrile]", "pIC50": 9.20}
{"smiles": "COCCN(C)Cc1cc(C#N)cc(Nc2nc(NC3CC3)c3ncc(C#N)n3n2)c1Cl", "note": "[Example 475, 2-[(2-chloro-5-cyano-3-{[(2-methoxyethyl)(methyl)amino]methyl}phenyl)amino]-4-(cyclopropylamino)imidazo[2,1-f][1,2,4]triazine-7-carbonitrile]", "pIC50": 8.75}
{"smiles": "N#Cc1cc(Nc2nc(NC3CC3)c3ncc(C#N)n3n2)c(Cl)c(C(O)C2CCN(C3COC3)CC2)c1", "note": "(centres unmarked) [Example 655, 2-((2-chloro-5-cyano-3-(hydroxy(1-(oxetan-3-yl)piperidin-4-yl)methyl)phenyl)amino)-4-(cyclopropylamino)imidazo[2,1-f][1,2,4]triazine-7-carbonitrile]", "pIC50": 8.55}
{"smiles": "N#Cc1cnc2c(NC3CC3)nc(Nc3cc(C(F)F)cc(N4CCN(C5(CCO)COC5)CC4)c3Cl)nn12", "note": "[Example 270, 2-((2-chloro-5-(difluoromethyl)-3-(4-(3-(2-hydroxyethyl)-3-oxetanyl)-1-piperazinyl)phenyl)amino)-4-(cyclopropylamino)imidazo[2,1-f][1,2,4]triazine-7-carbonitrile]", "pIC50": 9.09}
{"smiles": "N#Cc1cc(Nc2nc(NC3CC3)c3ncc(C#N)n3n2)c(Cl)c(N2CCN(C(=O)C3CCCO3)CC2)c1", "note": "(racemic) [Example 84, (+/−) 2-((2-chloro-5-cyano-3-(4-(tetrahydro-2-furanylcarbonyl)-1-piperazinyl)phenyl)amino)-4-(cyclopropylamino) imidazo[2,1-f][1,2,4] triazine-7-carbonitrile]", "pIC50": 9.30}
{"smiles": "N#Cc1cc(Nc2nc(NC3CC3)c3ncc(C#N)n3n2)c(Cl)c(C2CCNCC2)c1", "note": "[Example 208, 2-((2-chloro-5-cyano-3-(piperidin-4-yl)phenyl)amino)-4-(cyclopropylamino)imidazo[2,1-f][1,2,4]triazine-7-carbonitrile]", "pIC50": 9.24}
